# Measured values as given in patent US20230124862A1, “BISMUTH THIOL COMPOUNDS AND COMPOSITIONS AND METHODS OF TREATING MICROBIAL CO-INFECTIONS” (Microbion Corporation, priority 2020, published 2023).
# Like-named read-outs stand apart in the source and are kept apart here. Marks after values point to notes of the source that are not given here.
# Assays:
# S. aureus ATCC 29213 [1] = test: MIC control strain; conditions: QC organism, Example 13
# [2] = test system: Pseudomonas aeruginosa strain PA01; test: Bacterial killing curves with and without CF patient sputum; assay type: cell-based; conditions: for bactericidal activity: 0.1 μg/mL
# B. cenocepacia = test: MIC testing of CF isolates; assay type: cell-based, Burkholderia cenocepacia; conditions: strain AU197
# [3] = test system: P. aeruginosa and A. baumannii; test: Broth microdilution MIC (Example 11); assay type: cell-based, Pseudomonas aeruginosa, Acinetobacter baumannii; conditions: read-out: MIC values
# S. aureus ATCC 29213 [4] = conditions: cited from earlier work; for Expected MIC: goal (acceptable range): control strain ATCC 29213
# CYP = conditions: liver microsome (CYP) and hepatocyte
# physchem = assay type: physicochemical
# [5] = test system: Gram-negative organisms (P. aeruginosa, E. coli, A. baumannii, H. influenzae); test: Broth microdilution MIC with pulmonary surfactant (Survanta); assay type: cell-based; conditions: evaluated organisms, 1-10% Survanta
# P. aeruginosa [6] = conditions: P. aeruginosa isolate 103; CLSI QC range in parenthesis; cited from earlier work
# P. aeruginosa [7] = conditions: P. aeruginosa isolate 103; CLSI QC range in parenthesis; cited from earlier work; remark: listed apart in the source
# [8] = assay type: in vivo, F344 rats; conditions: rat, inhalation
# Protocol: Inhalation Exposure: The initial exposure of BisEDT (Bismuth-1,2-ethanedithiol) was formulated as a […] at 100 mg/mL in suspension in 0.5% Tween 80, 10 mM sodium phosphate, pH 7.4, in NaCl (adjusted to approximately 300 mOsm). Aerosols were generated with a commercial compressed air jet nebulizer, Pad LC Plus, operated with an inlet pressure of 20 psi. The aerosols were transitioned into a rodent nose-only inhalation exposure system. The exposure system was operated with an inlet air flow of −5.2 L/min and an exhaust air flow of −5 L/min.
# [9] = humans
# [10] = test system: Gram-positive organisms (S. aureus, S. pneumoniae); conditions: cited from earlier work
# Escherichia coli = conditions: CLSI established QC range, cited from earlier work
# Pseudomonas aeruginosa = conditions: P. aeruginosa ATCC 27853; CLSI established QC range; cited from earlier work
# [11] = test system: MucilAir fully differentiated human airway epithelium
# Acinetobacter baumannii = test: Broth microdilution MIC (Example 12); assay type: cell-based
# P. aeruginosa [12] = test: Checkerboard FIC/FICI assay; assay type: cell-based, Pseudomonas aeruginosa; conditions: during FIC testing
# Enterobacteriaceae = test: Broth microdilution MIC (Example 11); assay type: cell-based, E. coli, K. pneumoniae, Enterobacter cloacae
# [13] = test system: P. aeruginosa and A. baumannii; conditions: P. aeruginosa (MMX 103), QC; cited from earlier work
compound,measurement,setting,value
"CC(S)C(C)S.[Bi] (centres unmarked) [BisBDT, bismuth-2,3-butanedithiol]",MIC 24 hr,S. aureus ATCC 29213 [1],1^a
same,bactericidal activity,[2],not bactericidal
same,more surviving in cultures with sputum,"[2]; 4 μg/mL, 3-6 hours",0.5-0.8 log CFU/mL
same,killing without sputum,"[2]; 4 μg/mL, over the 6 hour assay",about 1 log
same,time to sterilization below the limit of detection,"[2]; 20 μg/mL, with and without sputum",≤ 5 h
same,MIC,B. cenocepacia,4 µg/mL
same,MIC,[3],0.5 to 2 µg/mL
same,Expected MIC: goal (acceptable range),S. aureus ATCC 29213 [4],0.25 (0.12-0.5) mcg/mL
"C1C[S][Bi]([S]CC[S][Bi]2[S]CC[S]2)[S]1 [BisEDT, Bismuth-1,2-ethanedithiol]",effect on liver cell metabolism (inhibition or induction of standard substrates),CYP,no significant effect
same,solubility,physchem,< 5 µg/mL
same,effect of Survanta addition on MIC values,[5],largely unaffected
same,CLSI QC range of MIC,P. aeruginosa [6],(0.5-4) μg/mL
same,CLSI QC range of MIC,P. aeruginosa [7],(0.5-4)^2 μg/mL
same,"Mean BisEDT Conc, whole blood","[8]; dose 47 μg/kg, 8 hr",114 ng/mL
same,"Mean BisEDT Conc, whole blood","[8]; dose 47 μg/kg, 12 hr",98 ng/mL
same,"Mean BisEDT Conc, whole blood","[8]; dose 47 μg/kg, 24 hr",282 ng/mL
same,"Mean BisEDT Conc, whole blood","[8]; dose 47 μg/kg, 30 hr",373 ng/mL
same,"Mean BisEDT Conc, whole blood","[8]; dose 124 μg/kg, 8 hr",247 ng/mL
same,"Mean BisEDT Conc, whole blood","[8]; dose 124 μg/kg, 12 hr",187 ng/mL
same,"Mean BisEDT Conc, whole blood","[8]; dose 124 μg/kg, 24 hr",571 ng/mL
same,"Mean BisEDT Conc, whole blood","[8]; dose 124 μg/kg, 30 hr",668 ng/mL
same,"Mean BisEDT Conc, whole blood","[8]; dose 400 μg/kg, 8 hr",1701 ng/mL
same,"Mean BisEDT Conc, whole blood","[8]; dose 400 μg/kg, 12 hr",1252 ng/mL
same,"Mean BisEDT Conc, whole blood","[8]; dose 400 μg/kg, 24 hr",2700 ng/mL
same,"Mean BisEDT Conc, whole blood","[8]; dose 400 μg/kg, 30 hr",2738 ng/mL
same,"Mean BisEDT Conc, whole blood","[8]; dose 3000 μg/kg, 1 hr",485 ng/mL
same,"Mean BisEDT Conc, whole blood","[8]; dose 3000 μg/kg, 2 hr",2504 ng/mL
same,"Mean BisEDT Conc, whole blood","[8]; dose 3000 μg/kg, 8 hr",6570 ng/mL
same,"Mean BisEDT Conc, whole blood","[8]; dose 3000 μg/kg, 24 hr",20525 ng/mL
same,well-tolerated topical concentration,[9]; 6 hours,up to 2500 μg/cm^2
same,tolerated topical concentration,"[9]; over 21 days continuous exposure, normal and abraded skin",up to 75 μg/cm^2
same,CLSI acceptable MIC QC range,[10]; S. aureus ATCC 29213,(0.12-1) μg/mL
same,CLSI acceptable MIC QC range,[10]; S. pneumoniae ATCC 49619,(0.12-1) μg/mL
same,QC range of MIC,Escherichia coli; E. coli ATCC 25922,(0.5-4)^1 μg/mL
same,bactericidal activity,[2],not bactericidal
same,QC range of MIC,Pseudomonas aeruginosa,(0.5-4) μg/mL
same,Morphology after exposure,"[11]; BisEDT in solution, all tested concentrations and time points",No morphology changes were observed
same,Morphology after exposure,"[11]; solid in dextran, 3.33 μg/cm^2, 24 and 48 h",Cells were rounded and opaque at the periphery of inserts
same,Morphology after exposure,"[11]; solid in dextran, 0.033 and 0.33 μg/cm^2",No morphological modifications were observed
same,Morphology after exposure,"[11]; solid, 1 μg/cm^2, 1 hour and 8 hour",no important morphological changes were observed
same,Morphology after exposure,"[11]; solid, 1 μg/cm^2, 24 h",the epithelial cells on 2 inserts out of 3 were dead
same,Morphology after exposure,"[11]; solid, 1 μg/cm^2, 48 h",the epithelial cells on all 3 inserts were dead
same,QC Range 24 hr,"S. aureus ATCC 29213 [4]; S. aureus ATCC 29213, established QC range, 24 hr",0.12-1
same,Expected MIC: goal (acceptable range),S. aureus ATCC 29213 [4],0.25 to 0.5 µg/mL
C[C@@H](O)[C@H]1C(=O)N2C(C(=O)O)=C(S[C@@H]3CN[C@H](C(=O)N(C)C)C3)[C@H](C)[C@H]12 [MEM],MIC,"Acinetobacter baumannii; A. baumannii CDC 273, ESBL/OXA",>8 µg/mL
same,MIC,"Acinetobacter baumannii; A. baumannii CDC 274, ESBL/OXA",>8 µg/mL
same,MIC,"Acinetobacter baumannii; A. baumannii CDC 275, ESBL/OXA",>8 µg/mL
same,MIC,"Acinetobacter baumannii; A. baumannii CDC 277, ESBL/OXA",>8 µg/mL
same,MIC,"Acinetobacter baumannii; A. baumannii CDC 284, ESBL/OXA",>8 µg/mL
same,MIC,"Acinetobacter baumannii; A. baumannii CDC 307, OXA",8 µg/mL
same,MIC,"Acinetobacter baumannii; A. baumannii CDC 308, ESBL/OXA",8 µg/mL
same,MIC,"Acinetobacter baumannii; A. baumannii CDC 311, OXA",>8 µg/mL
same,MIC,"Acinetobacter baumannii; A. baumannii CDC 312, OXA",4 µg/mL
same,MIC,"Acinetobacter baumannii; A. baumannii CDC 313, ESBL/OXA",>8 µg/mL
same,MIC,"Acinetobacter baumannii; A. baumannii NCTC 13304, OXA",>8 µg/mL
same,CLSI QC range of MIC,P. aeruginosa [6],(0.12-1) μg/mL
same,MIC,"P. aeruginosa [12]; isolate 103 (ATCC 25922), each agent tested alone for QC, one replicate",1 µg/mL
same,MIC,P. aeruginosa [12]; isolate 6322,16 µg/mL
same,MIC,P. aeruginosa [12]; isolate 6977,8 µg/mL
same,MIC,P. aeruginosa [12]; isolate 7745,16 µg/mL
same,MIC,P. aeruginosa [12]; isolate 8798,32 µg/mL
same,CLSI QC range of MIC,P. aeruginosa [7],(0.12-1) μg/mL
same,QC range of MIC,Escherichia coli; E. coli ATCC 25922,(0.008-0.06) μg/mL
same,QC range of MIC,Escherichia coli; E. coli ATCC 35218,(0.008-0.06) μg/mL
same,MIC,"Enterobacteriaceae; E. cloacae (MMX 5981), NDM-1, LVX-R, MEM-R, CAZ-R, GEN-R",>64 µg/mL
same,MIC,"Enterobacteriaceae; E. coli (MMX 102), QC",0.03 µg/mL
same,MIC,"Enterobacteriaceae; E. coli (MMX 5980), NDM-1, LVX-R, MEM-R, CAZ-R, GEN-R",32 µg/mL
same,MIC,"Enterobacteriaceae; E. coli (MMX 8423), ESBL, LVX-R, CAZ-R, GEN-R",0.03 µg/mL
same,MIC,"Enterobacteriaceae; E. coli (MMX 8424), ESBL, CAZ-R",0.03 µg/mL
same,MIC,"Enterobacteriaceae; E. coli (MMX 8425), ESBL, LVX-R, CAZ-R, GEN-R",0.015 µg/mL
same,MIC,"Enterobacteriaceae; K. pneumoniae (MMX 4622), KPC-2, MEM-R, CAZ-R",>64 µg/mL
same,MIC,"Enterobacteriaceae; K. pneumoniae (MMX 4623), KPC-2, MEM-R, CAZ-R, GEN-R",>64 µg/mL
same,MIC,"Enterobacteriaceae; K. pneumoniae (MMX 4653), KPC-3, LVX-R, MEM-R, CAZ-R",>64 µg/mL
same,MIC,"Enterobacteriaceae; K. pneumoniae (MMX 4683), KPC-2, LVX-R, MEM-R, CAZ-R",32 µg/mL
same,MIC,"Enterobacteriaceae; K. pneumoniae (MMX 4684), ESBL, MEM-R",8 µg/mL
same,MIC,"Enterobacteriaceae; K. pneumoniae (MMX 4685), ESBL, LVX-R, MEM-R, CAZ-R",4 µg/mL
same,MIC,"Enterobacteriaceae; K. pneumoniae (MMX 4694), KPC-3, LVX-R, MEM-R, CAZ-R",32 µg/mL
same,MIC,"Enterobacteriaceae; K. pneumoniae (MMX 5979), NDM-1, LVX-R, MEM-R, CAZ-R, GEN-R",>64 µg/mL
same,QC range of MIC,Pseudomonas aeruginosa,(0.12-1) μg/mL
same,CLSI Quality Control Range (MIC),[13],(0.25-1)
